From US20170204092A1, “4,5-DIHYDROISOXAZOLE DERIVATIVES AS NAMPT INHIBITORS” (AURIGENE DISCOVERY TECHNOLOGIES LIMITED, priority 2014, published 2017)
Like-named read-outs stand apart in the source and are kept apart here.

What was measured:
MiaPaCa-2 cells = assay: Cytotoxicity assay in MiaPaCa-2 (XTT, 72 h); type: cell-based; conditions: for Cell cytotoxicity assay (% Inhibition at 1 μM) / inhibition at 10 µM / inhibition at 1 µM / Cell cytotoxicity assay (% Inhibition at 10 μM): DMSO control = 0% inhibition; for inhibition at 10 µM: read-out: Cell cytotoxicity assay (% Inhibition at 10 μM); for IC50: XTT, read-out: Cell cytotoxicity assay IC50 in range; for inhibition at 1 µM: read-out: Cell cytotoxicity assay (% Inhibition at 1 μM)
Method: MiaPaCa-2 Cells (ATCC) were seeded in 96 well plates (Costar clear flat bottom) at a density of 3000 cells/well and allowed to settle overnight. Test compounds were dissolved in dimethyl sulphoxide (DMSO-Sigma Aldrich, D2650) and incubated with MiaPaCa-2 cells for 72 h. Post 72 h, 50 μl XTT (1 mg/mL; Invitrogen, X 6493) and PMS ([…]; Sigma Aldrich, P9625) reagents were added to the cells in 100 μl of cDMEM (Sigma Aldrich-D5648)+10% FBS (Hyclone-5430088-03)+1×Pen Strep (Sigma Aldrich-P0781). After 1 hour incubation with XTT and PMS absorbance was monitored with Spectramax M3 (Molecular Device). Percentage inhibition of proliferation at 10 μM and 1 μM concentrations was calculated by considering DMSO control as 0% inhibition. IC50 values were plotted using Graph pad prism software (Graph pad Inc, La Jola, Calif., USA).

[1] = molecular target: T1, recombinant NAMPT wild type protein (Homo sapiens, UniProt P43490); assay: NAMPT fluorescence assay; type: biochemical; conditions: 50 ng NAMPT, 2 μM Nam, 10 point dose response; read-out: Fluorescence assay IC50 in range
T1 construct: made in house; host or cells: E. coli
Method: The enzymatic assay was standardized using in-house recombinant NAMPT wild type protein from E. coli expression & NAM (Cat #47865-U) as a substrate. The product NMN formed after enzymatic reaction was derivatized to a fluorescent derivative through sequentially reacting with acetophenone/KOH and formic acid. The derivatized fluorescent NMN derivative was detected at 382 nm excitation wavelength and a 445 nm emission wavelength. […] The fluorescence was measured (Excitation at 382 nm & Emission at 445 nm) using Victor^3 V fluorimeter. The data is calculated using the RFU values. The final concentration of DMSO was 2% in the assay. Each individual IC50 was determined using 10 point dose response curve generated by GraphPad Prism software Version 4 (San Diego, Calif., USA) using nonlinear regression curve fit for sigmoidal dose response (variable slope).

T1 sequence (P43490 whole entry): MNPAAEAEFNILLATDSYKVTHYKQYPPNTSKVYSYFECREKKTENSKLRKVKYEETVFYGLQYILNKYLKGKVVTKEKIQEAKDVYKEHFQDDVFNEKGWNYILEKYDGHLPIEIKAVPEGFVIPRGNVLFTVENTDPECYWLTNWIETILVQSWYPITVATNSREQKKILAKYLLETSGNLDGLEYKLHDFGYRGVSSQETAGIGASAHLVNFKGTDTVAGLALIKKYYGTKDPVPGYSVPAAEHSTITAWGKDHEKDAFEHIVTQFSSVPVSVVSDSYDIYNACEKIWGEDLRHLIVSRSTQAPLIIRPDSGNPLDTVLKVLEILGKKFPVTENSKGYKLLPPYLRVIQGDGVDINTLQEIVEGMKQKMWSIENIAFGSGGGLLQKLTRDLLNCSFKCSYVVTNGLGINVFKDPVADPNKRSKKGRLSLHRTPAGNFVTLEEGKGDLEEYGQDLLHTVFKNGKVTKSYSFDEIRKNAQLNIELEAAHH

IC50 [1]	SMILES	Cell cytotoxicity assay (% Inhibition at 1 μM) (MiaPaCa-2 cells)	inhibition at 10 µM (MiaPaCa-2 cells; Homo sapiens, MIA PaCa-2, 72 h)	IC50 (MiaPaCa-2 cells)	inhibition at 1 µM (MiaPaCa-2 cells; Homo sapiens, MIA PaCa-2, 72 h)	IC50 (MiaPaCa-2 cells; Homo sapiens, MIA PaCa-2, 72 h)	Cell cytotoxicity assay (% Inhibition at 10 μM) (MiaPaCa-2 cells)
> 25 nM	O=C(NCC1=NOC(COc2cc(Cl)cnc2-c2cccnc2)C1)c1ccc2nccn2c1 (single isomer, unassigned) [Example 13a, N-((5-(((5-chloro-[2,3′-bipyridin]-3-yl)oxy)methyl)-4,5-dihydroisoxazol-3-yl)methyl)imidazo[1,2-a]pyridine-6-carboxamide]	20%	93%	> 250 nM			
10 to 25 nM	Cc1ccc(OCC2CC(CNC(=O)c3ccc4nccn4c3)=NO2)c(-c2ccc(F)nc2)n1 (single isomer, unassigned) [Example 12a, N-((5-(((6′-fluoro-6-methyl-[2,3′-bipyridin]-3-yl)oxy)methyl)-4,5-dihydroisoxazol-3-yl)methyl)imidazo[1,2-a]pyridine-6-carboxamide]	45%	96%	> 250 nM			
10 to 25 nM	O=C(NCC1=NOC(COc2cc(F)cnc2-c2ccc(F)nc2)C1)c1ccc2nccn2c1 (single isomer, unassigned) [Example 9b, N-((5-(((5,6′-difluoro-[2,3′-bipyridin]-3-yl)oxy)methyl)-4,5-dihydroisoxazol-3-yl)methyl)imidazo[1,2-a]pyridine-6-carboxamide]	95%		< 50 nM			95%
< 10 nM	O=C(NCC1=NOC(COc2cc(F)cnc2-c2ccc(F)nc2)C1)c1ccc2nccn2c1 (single isomer, unassigned) [Example 9a, N-((5-(((5,6′-difluoro-[2,3′-bipyridin]-3-yl)oxy)methyl)-4,5-dihydroisoxazol-3-yl)methyl)imidazo[1,2-a]pyridine-6-carboxamide]	12%	90%	> 250 nM			
10 to 25 nM	O=C(NCC1=NOC(COc2cc(Cl)cnc2-c2cccnc2)C1)c1ccc2nccn2c1 (single isomer, unassigned) [Example 13b, N-((5-(((5-chloro-[2,3′-bipyridin]-3-yl)oxy)methyl)-4,5-dihydroisoxazol-3-yl)methyl)imidazo[1,2-a]pyridine-6-carboxamide]	100%		< 50 nM			100%

The next lines start with the compound.

SMILES	IC50 [1]	Cell cytotoxicity assay (% Inhibition at 1 μM) (MiaPaCa-2 cells)	inhibition at 10 µM (MiaPaCa-2 cells; Homo sapiens, MIA PaCa-2, 72 h)	IC50 (MiaPaCa-2 cells)	inhibition at 1 µM (MiaPaCa-2 cells; Homo sapiens, MIA PaCa-2, 72 h)	IC50 (MiaPaCa-2 cells; Homo sapiens, MIA PaCa-2, 72 h)	Cell cytotoxicity assay (% Inhibition at 10 μM) (MiaPaCa-2 cells)
Cc1cc(NC(=O)NCC2=NOC(COc3cccnc3-c3ccc(F)nc3)C2)ccn1 (racemic) [Example 16, 1-((5-(((6′-fluoro-[2,3′-bipyridin]-3-yl)oxy)methyl)-4,5-dihydroisoxazol-3-yl)methyl)-3-(2-methylpyridin-4-yl)urea]	< 10 nM		89%		89%	50 to 250 nM	
Cn1cc(-c2ncccc2OCC2CC(CNC(=O)c3ccc4nccn4c3)=NO2)cn1 (racemic) [Example 5, N-((5-(((2-(1-methyl-1H-pyrazol-4-yl)pyridin-3-yl)oxy)methyl)-4,5-dihydroisoxazol-3-yl)methyl)imidazo[1,2-a]pyridine-6-carboxamide]	< 10 nM		95%		47%	50 to 250 nM	
CNC(=O)c1ccc(-c2ncccc2OCC2CC(CNC(=O)c3ccc4nccn4c3)=NO2)cc1F (racemic) [Example 6, N-((5-(((2-(3-fluoro-4-(methylcarbamoyl)phenyl)pyridin-3-yl)oxy)methyl)-4,5-dihydroisoxazol-3-yl)methyl)imidazo[1,2-a]pyridine-6-carboxamide]	> 25 nM		80%		15%	> 250 nM	
Cn1cc(-c2cccnc2OCC2CC(CNC(=O)c3ccc4nccn4c3)=NO2)cn1 (racemic) [Example 1, N-((5-(((3-(1-methyl-1H-pyrazol-4-yl)pyridin-2-yl)oxy)methyl)-4,5-dihydroisoxazol-3-yl)methyl)imidazo[1,2-a]pyridine-6-carboxamide]	< 10 nM					> 250 nM	
O=C(NCC1=NOC(COc2ncccc2-c2ccc(F)nc2)C1)c1ccc2nccn2c1 (racemic) [Example 2, N-((5-(((6′-fluoro-[3,3′-bipyridin]-2-yl)oxy)methyl)-4,5-dihydroisoxazol-3-yl)methyl)-imidazo[1,2-a]pyridine-6-carboxamide]	< 10 nM		97%		95%	50 to 250 nM	
O=C(NCC1=NOC(COc2cccnc2-c2ccc(F)nc2)C1)c1ccc2nccn2c1 (racemic) [Example 4, N-((5-(((6′-fluoro-[2,3′-bipyridin]-3-yl)oxy)methyl)-4,5-dihydroisoxazol-3-yl)methyl)imidazo[1,2-a]pyridine-6-carboxamide]	< 10 nM		96%		96%	< 50 nM	
Cc1cc(NC(=O)NCC2=NOC(COc3cccnc3-c3cnn(C)c3)C2)ccn1 (racemic) [Example 19, 1-((5-(((2-(1-methyl-1H-pyrazol-4-yl)pyridin-3-yl)oxy)methyl)-4,5-dihydroisoxazol-3-yl)methyl)-3-(2-methylpyridin-4-yl)urea]	10 to 25 nM		82%		17%	> 250 nM	
O=C(NCC1=NOC(COc2cccnc2-c2ccc(F)nc2)C1)Nc1ccnnc1 (racemic) [Example 18, 1-((5-(((6′-fluoro-[2,3′-bipyridin]-3-yl)oxy)methyl)-4,5-dihydroisoxazol-3-yl)methyl)-3-(pyridazin-4-yl)urea]	> 25 nM		89%		90%	50 to 250 nM	
Cc1ccc(OCC2CC(CNC(=O)c3ccc4nccn4c3)=NO2)c(-c2ccc(F)nc2)n1 (racemic) [Example 12, N-((5-(((6′-fluoro-6-methyl-[2,3′-bipyridin]-3-yl)oxy)methyl)-4,5-dihydroisoxazol-3-yl)methyl)imidazo[1,2-a]pyridine-6-carboxamide]	> 25 nM		95%		96%	< 50 nM	
O=C(NCC1=NOC(COc2cc(Cl)cnc2-c2cccnc2)C1)c1ccc2nccn2c1 (racemic) [Example 13, N-((5-(((5-chloro-[2,3′-bipyridin]-3-yl)oxy)methyl)-4,5-dihydroisoxazol-3-yl)methyl)imidazo[1,2-a]pyridine-6-carboxamide]	< 10 nM		95%		95%	50 to 250 nM	
O=C(NCC1=NOC(COc2cccnc2-c2ccc(F)nc2)C1)Nc1ccncc1 (racemic) [Example 17, 1-((5-(((6′-fluoro-[2,3′-bipyridin]-3-yl)oxy)methyl)-4,5-dihydroisoxazol-3-yl)methyl)-3-(pyridin-4-yl)urea]	< 10 nM		89%		90%	< 50 nM	
O=C(NCC1=NOC(COc2cccnc2-c2ccc(F)nc2)C1)c1ccc2nccn2c1 (single isomer, unassigned) [Example 4b, N-((5-(((6′-fluoro-[2,3′-bipyridin]-3-yl)oxy)methyl)-4,5-dihydroisoxazol-3-yl)methyl)imidazo[1,2-a]pyridine-6-carboxamide]	< 10 nM	95%		< 50 nM			94%
